Laboratory results reported in PubChem BioAssay (NCI).
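Cells were grown in 96-well plates and exposed to each compound for 48 hours at five concentrations; endpoints were interpolated linearly between bracketing concentrations, or set to the highest concentration if not reached. TGI marks complete inhibition of growth.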

Key:
Experiment in all cases: NCI tumour cell line growth inhibition, 48 h
786-0 renal = tested on: 786-0 renal
A498 renal = tested on: A498 renal
ACHN renal = tested on: ACHN renal
COLO 205 colon = tested on: COLO 205 colon
EKVX NSCLC = tested on: EKVX NSCLC
HCT-116 colon = tested on: HCT-116 colon
HOP-92 NSCLC = tested on: HOP-92 NSCLC
HT29 colon = tested on: HT29 colon
LOX IMVI melanoma = tested on: LOX IMVI melanoma
MDA-MB-231 breast = tested on: MDA-MB-231 breast
MDA-MB-435 = tested on: MDA-MB-435
NCI-H460 lung = tested on: NCI-H460 lung
OVCAR-4 ovarian = tested on: OVCAR-4 ovarian
PC-3 prostate = tested on: PC-3 prostate
SF-268 CNS = tested on: SF-268 CNS
SF-295 CNS = tested on: SF-295 CNS
SF-539 CNS = tested on: SF-539 CNS
TK-10 renal = tested on: TK-10 renal
U251 CNS = tested on: U251 CNS
UO-31 renal = tested on: UO-31 renal

CCCC[Si](CCCC)(CCCC)O[C@@H](/C=C/C(=O)OCC)[C@H](Cc1ccccc1)O[Si](CCCC)(CCCC)CCCC
TGI (786-0 renal): > 100 µM | TGI (A498 renal): > 100 µM | TGI (ACHN renal): > 100 µM | TGI (COLO 205 colon): > 100 µM | TGI (EKVX NSCLC): > 100 µM | TGI (HCT-116 colon): > 100 µM | TGI (HOP-92 NSCLC): > 100 µM | TGI (HT29 colon): > 100 µM | TGI (LOX IMVI melanoma): > 100 µM | TGI (MDA-MB-231 breast): > 100 µM | TGI (MDA-MB-435): > 100 µM | TGI (NCI-H460 lung): > 100 µM | TGI (OVCAR-4 ovarian): > 100 µM | TGI (PC-3 prostate): > 100 µM | TGI (SF-268 CNS): > 100 µM | TGI (SF-295 CNS): > 100 µM | TGI (SF-539 CNS): > 100 µM | TGI (TK-10 renal): > 100 µM | TGI (U251 CNS): > 100 µM | TGI (UO-31 renal): > 100 µM

CCNC(=O)Cc1nc2c(=O)[nH]cnc2n1C1OC(CO)C(O)C1O (stereo not given)
TGI (786-0 renal): > 100 µM | TGI (A498 renal): > 100 µM | TGI (ACHN renal): > 100 µM | TGI (COLO 205 colon): > 100 µM | TGI (EKVX NSCLC): > 100 µM | TGI (HCT-116 colon): > 100 µM | TGI (HOP-92 NSCLC): > 100 µM | TGI (HT29 colon): > 100 µM | TGI (LOX IMVI melanoma): > 100 µM | TGI (MDA-MB-231 breast): > 100 µM | TGI (MDA-MB-435): > 100 µM | TGI (NCI-H460 lung): > 100 µM | TGI (OVCAR-4 ovarian): > 100 µM | TGI (PC-3 prostate): > 100 µM | TGI (SF-268 CNS): > 100 µM | TGI (SF-295 CNS): > 100 µM | TGI (SF-539 CNS): > 100 µM | TGI (TK-10 renal): > 100 µM | TGI (U251 CNS): > 100 µM | TGI (UO-31 renal): > 100 µM

CN(C)C1COC2Cc3ccccc3C1O2 (stereo not given)
TGI (786-0 renal): > 100 µM | TGI (A498 renal): > 100 µM | TGI (ACHN renal): > 100 µM | TGI (COLO 205 colon): > 100 µM | TGI (EKVX NSCLC): > 100 µM | TGI (HCT-116 colon): > 100 µM | TGI (HOP-92 NSCLC): > 100 µM | TGI (HT29 colon): > 100 µM | TGI (LOX IMVI melanoma): > 100 µM | TGI (MDA-MB-231 breast): > 100 µM | TGI (MDA-MB-435): > 100 µM | TGI (NCI-H460 lung): > 100 µM | TGI (OVCAR-4 ovarian): > 100 µM | TGI (PC-3 prostate): > 100 µM | TGI (SF-268 CNS): > 100 µM | TGI (SF-295 CNS): > 100 µM | TGI (SF-539 CNS): > 100 µM | TGI (TK-10 renal): > 100 µM | TGI (U251 CNS): > 100 µM | TGI (UO-31 renal): > 100 µM

CN(CCNC(=O)c1cc(-c2ccccc2)nc2ccccc12)CCNC(=O)c1cc(-c2ccccc2)nc2ccccc12
TGI (786-0 renal): 23.5 µM | TGI (A498 renal): 37.6 µM | TGI (ACHN renal): > 100 µM | TGI (COLO 205 colon): 4.71 µM | TGI (EKVX NSCLC): > 87.8 µM | TGI (HCT-116 colon): > 46.4 µM | TGI (HOP-92 NSCLC): 14.7 µM | TGI (HT29 colon): 4.74 µM | TGI (LOX IMVI melanoma): 16 µM | TGI (MDA-MB-231 breast): > 100 µM | TGI (MDA-MB-435): 13.1 µM | TGI (NCI-H460 lung): > 100 µM | TGI (OVCAR-4 ovarian): > 100 µM | TGI (PC-3 prostate): > 100 µM | TGI (SF-268 CNS): > 100 µM | TGI (SF-295 CNS): 90.5 µM | TGI (SF-539 CNS): 21.3 µM | TGI (TK-10 renal): > 100 µM | TGI (U251 CNS): 30.9 µM | TGI (UO-31 renal): > 100 µM

CC(C)(C)C1=NN=C2c3ccccc3C(=O)C21 (stereo not given)
TGI (786-0 renal): > 100 µM | TGI (A498 renal): 99.5 µM | TGI (ACHN renal): > 100 µM | TGI (COLO 205 colon): > 100 µM | TGI (EKVX NSCLC): > 100 µM | TGI (HCT-116 colon): > 100 µM | TGI (HOP-92 NSCLC): 63.7 µM | TGI (HT29 colon): > 100 µM | TGI (LOX IMVI melanoma): > 100 µM | TGI (MDA-MB-231 breast): > 100 µM | TGI (MDA-MB-435): > 100 µM | TGI (NCI-H460 lung): > 100 µM | TGI (OVCAR-4 ovarian): > 100 µM | TGI (PC-3 prostate): > 100 µM | TGI (SF-268 CNS): > 100 µM | TGI (SF-295 CNS): > 100 µM | TGI (SF-539 CNS): > 100 µM | TGI (TK-10 renal): > 100 µM | TGI (U251 CNS): > 100 µM | TGI (UO-31 renal): > 100 µM

Clc1ccc(CSCc2ccc(Cl)cc2Cl)c(Cl)c1
TGI (786-0 renal): > 100 µM | TGI (A498 renal): > 100 µM | TGI (ACHN renal): > 100 µM | TGI (COLO 205 colon): > 100 µM | TGI (EKVX NSCLC): > 100 µM | TGI (HCT-116 colon): > 100 µM | TGI (HOP-92 NSCLC): > 100 µM | TGI (HT29 colon): > 100 µM | TGI (LOX IMVI melanoma): > 100 µM | TGI (MDA-MB-231 breast): > 100 µM | TGI (MDA-MB-435): > 100 µM | TGI (NCI-H460 lung): > 100 µM | TGI (OVCAR-4 ovarian): > 100 µM | TGI (PC-3 prostate): > 100 µM | TGI (SF-268 CNS): > 100 µM | TGI (SF-295 CNS): > 100 µM | TGI (SF-539 CNS): > 100 µM | TGI (TK-10 renal): > 100 µM | TGI (U251 CNS): > 100 µM | TGI (UO-31 renal): > 100 µM

CN(C)CC1CN(C(=O)Nc2ccccc2)C(=N)O1 (stereo not given)
TGI (786-0 renal): > 100 µM | TGI (A498 renal): > 100 µM | TGI (ACHN renal): > 100 µM | TGI (COLO 205 colon): > 100 µM | TGI (EKVX NSCLC): > 100 µM | TGI (HCT-116 colon): > 100 µM | TGI (HOP-92 NSCLC): > 100 µM | TGI (HT29 colon): > 100 µM | TGI (LOX IMVI melanoma): > 100 µM | TGI (MDA-MB-231 breast): > 100 µM | TGI (MDA-MB-435): > 100 µM | TGI (NCI-H460 lung): > 100 µM | TGI (OVCAR-4 ovarian): > 100 µM | TGI (PC-3 prostate): > 100 µM | TGI (SF-268 CNS): > 100 µM | TGI (SF-295 CNS): > 100 µM | TGI (SF-539 CNS): > 100 µM | TGI (TK-10 renal): > 100 µM | TGI (U251 CNS): > 100 µM | TGI (UO-31 renal): > 100 µM

Nc1nc(Cl)cc(NCC2(CO)CC(Cc3ccccc3)C2)n1 (stereo not given)
TGI (786-0 renal): > 100 µM | TGI (A498 renal): 78.7 µM | TGI (ACHN renal): > 100 µM | TGI (COLO 205 colon): > 59.6 µM | TGI (EKVX NSCLC): > 95.1 µM | TGI (HCT-116 colon): > 100 µM | TGI (HOP-92 NSCLC): > 88.6 µM | TGI (HT29 colon): > 72.4 µM | TGI (LOX IMVI melanoma): > 100 µM | TGI (MDA-MB-231 breast): > 100 µM | TGI (MDA-MB-435): > 78.1 µM | TGI (NCI-H460 lung): > 100 µM | TGI (OVCAR-4 ovarian): > 100 µM | TGI (PC-3 prostate): > 90.8 µM | TGI (SF-268 CNS): > 31.6 µM | TGI (SF-295 CNS): > 100 µM | TGI (SF-539 CNS): > 100 µM | TGI (TK-10 renal): > 96.5 µM | TGI (U251 CNS): > 100 µM | TGI (UO-31 renal): > 100 µM
